Patent US8901111B2, “Aryl-substituted heterocyclic urea modulators of fatty acid amide hydrolase” (Janssen Pharmaceutica NV, priority 2009, dated 2014)
Where a name gives a salt, the structure may show the parent alone.

Assays:
[1] = biological target: T1, rat FAAH (Rattus norvegicus, UniProt P97612); test: Assay Method 2: FAAH assay, 3H-anandamide hydrolysis in homogenate of cells transfected with rat FAAH; type: biochemical; details: cell homogenate, 3H-AEA 80 nM, 1 h at rt, average of results
T1 construct: expressed in transfected cells; crude homogenate
T1 sequence (P97612 1-579): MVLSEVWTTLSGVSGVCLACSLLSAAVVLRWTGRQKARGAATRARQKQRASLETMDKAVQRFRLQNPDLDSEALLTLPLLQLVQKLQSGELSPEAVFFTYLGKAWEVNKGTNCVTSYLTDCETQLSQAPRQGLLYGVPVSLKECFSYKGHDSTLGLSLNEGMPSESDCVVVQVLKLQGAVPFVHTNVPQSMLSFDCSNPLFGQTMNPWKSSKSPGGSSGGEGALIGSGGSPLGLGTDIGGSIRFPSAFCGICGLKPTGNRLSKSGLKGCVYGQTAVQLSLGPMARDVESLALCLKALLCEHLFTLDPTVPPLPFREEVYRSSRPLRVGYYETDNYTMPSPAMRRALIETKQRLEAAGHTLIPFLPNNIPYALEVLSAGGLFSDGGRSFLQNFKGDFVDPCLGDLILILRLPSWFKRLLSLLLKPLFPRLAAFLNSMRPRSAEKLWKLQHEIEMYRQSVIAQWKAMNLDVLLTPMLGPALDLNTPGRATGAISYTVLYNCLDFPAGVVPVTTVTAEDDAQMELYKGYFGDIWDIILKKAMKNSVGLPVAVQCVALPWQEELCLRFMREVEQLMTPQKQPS
Experimental: A. Transfection of Cells with Rat FAAH
(§1) A 10-cm tissue culture dish with a confluent monolayer of SK-N-MC cells was split 2 days (d) prior to transfection. Using sterile technique, the media was removed and the cells were detached from the dish by the addition of trypsin. One fifth of the cells were then placed onto a new 10-cm dish. Cells were grown in a 37° C. incubator with 5% CO2 in Minimal Essential Media Eagle with 10% Fetal Bovine Serum. After 2 d, cells were approximately 80% confluent. These cells were removed from the dish with trypsin and pelleted in a clinical centrifuge. The pellet was re-suspended in 400 μL complete media and transferred to an electroporation cuvette with a 0.4 cm gap between the electrodes. Supercoiled rat FAAH cDNA (1 μg) was added to the cells and mixed. The voltage for the electroporation was set at 0.25 kV, and the capacitance was set at 960 μF. After electroporation, the cells were diluted into complete media (10 mL) and plated onto four 10-cm dishes. Because of the variability in the efficiency of electroporation, four different concentrations of cells were plated. The ratios used were 1:20, 1:10, and 1:5, with the remainder of the cells being added to the fourth dish. The cells were allowed to recover for 24 h before adding the selection media (complete media with 600 μg/mL G418). After 10 d, dishes were analyzed for surviving colonies of cells. Dishes with well-isolated colonies were used. Cells from individual colonies were isolated and tested.
(§2) T84 frozen cell pellets or transfected SK-N-MC cells (contents of 1×15 cm culture dishes) were homogenized in 50 mL of FAAH assay buffer (125 mM Tris, 1 mM EDTA, 0.2% Glycerol, 0.02% Triton X-100, 0.4 mM Hepes, pH 9). The assay mixture consisted of 50 μL of the cell homogenate, 10 μL of the test compound, and 40 μL of anandamide [1-^3H-ethanolamine] (^3H-AEA, Perkin-Elmer, 10.3 Ci/mmol), which was added last, for a final tracer concentration of 80 nM. The reaction mixture was incubated at rt for 1 h. During the incubation, 96-well Multiscreen filter plates (catalog number MAFCNOB50; Millipore, Bedford, Mass., USA) were loaded with 25 μL of activated charcoal (Multiscreen column loader, catalog number MACL09625, Millipore) and washed once with 100 μL of MeOH. Also during the incubation, 96-well DYNEX MicroLite plates (catalog number NL510410) were loaded with 100 μL of MicroScint40 (catalog number 6013641, Packard Bioscience, Meriden, Conn., USA). After the 1 h incubation, 60 μL of the reaction mixture were transferred to the charcoal plates, which were then assembled on top of the DYNEX plates using Centrifuge Alignment Frames (catalog number MACF09604, Millipore). The unbound labeled ethanolamine was centrifuged through to the bottom plate (5 min at 2000 rpm), which was preloaded with the scintillant, as described above. The plates were sealed and left at rt for 1 h before counting on a Hewlett Packard TopCount.
(§3) Results for compounds tested in these assays are summarized in Table 1, as an average of results obtained. Compounds were tested in the free base or trifluoroacetic acid salt form. Compounds tested in the trifluoroacetic acid salt form are indicated as such by a “*” designation after the example number. Where activity is shown as greater than (>) a particular value, the value is the solubility limit of the compound in the assay medium or the highest concentration tested in the assay.

[2] = biological target: T2, FAAH (Homo sapiens, UniProt O00519); test: Assay Method 1: FAAH assay, 3H-anandamide hydrolysis in homogenate of cells transfected with human FAAH; type: biochemical; set-up: expressed in transfected cells; crude homogenate (T84 cell pellets named as alternative); details: cell homogenate, 3H-AEA 80 nM, 1 h at rt, average of results
T2 sequence (O00519 1-579): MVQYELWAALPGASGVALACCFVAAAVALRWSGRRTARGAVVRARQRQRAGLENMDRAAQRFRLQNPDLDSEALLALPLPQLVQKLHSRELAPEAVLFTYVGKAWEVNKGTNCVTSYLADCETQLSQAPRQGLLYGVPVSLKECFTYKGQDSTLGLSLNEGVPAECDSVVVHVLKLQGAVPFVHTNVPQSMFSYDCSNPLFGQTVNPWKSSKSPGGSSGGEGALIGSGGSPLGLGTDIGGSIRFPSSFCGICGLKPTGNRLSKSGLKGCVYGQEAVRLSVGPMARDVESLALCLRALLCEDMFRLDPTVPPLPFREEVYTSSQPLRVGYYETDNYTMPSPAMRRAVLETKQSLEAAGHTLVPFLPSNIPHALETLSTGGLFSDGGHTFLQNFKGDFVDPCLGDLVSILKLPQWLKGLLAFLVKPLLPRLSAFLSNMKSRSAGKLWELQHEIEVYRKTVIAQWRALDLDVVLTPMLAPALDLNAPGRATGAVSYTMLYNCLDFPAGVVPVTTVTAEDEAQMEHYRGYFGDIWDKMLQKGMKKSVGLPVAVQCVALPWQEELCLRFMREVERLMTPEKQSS
Experimental: A. Transfection of Cells with Human FAAH
as §1, with “Supercoiled human” for “Supercoiled rat”, “[…]” for “960 μF.”
as §2, §3

SMILES	IC50 [1] [nM]	IC50 [2] [nM]
O=C(Nc1cccnc1)N1CC(COc2ccc3ccccc3n2)C1 [Example 9, 3-(Quinolin-2-yloxymethyl)-azetidine-1-carboxylic acid pyridin-3-ylamide]	1300	1300
CS(=O)(=O)c1ccc(Oc2cccc(OCC3CN(C(=O)Nc4cccnc4)C3)c2)cc1 [Example 24, 3-[3-(4-Methanesulfonyl-phenoxy)-phenoxymethyl]-azetidine-1-carboxylic acid pyridin-3-ylamide]	380	58
O=C(Nc1cccnc1)N1CC(COc2cccc(C(F)(F)F)c2)C1 [Example 8, 3-(3-Trifluoromethyl-phenoxymethyl)-azetidine-1-carboxylic acid pyridin-3-ylamide, trifluoroacetate salt]	620	2400
O=C(Nc1cccnc1)N1CC(CCOc2cccc(Oc3ccccc3)c2)C1 [Example 32, 3-[2-(3-Phenoxy-phenoxy)-ethyl]-azetidine-1-carboxylic acid pyridin-3-ylamide]	430	360
O=C(Nc1cccnc1)N1CC(COc2ccc3cccc(Cl)c3n2)C1 [Example 22, 3-(8-Chloro-quinolin-2-yloxymethyl)-azetidine-1-carboxylic acid pyridin-3-ylamide]	500	1300
O=C(Nc1cccnc1)N1CC(COc2ccc3ncccc3c2)C1 [Example 15, 3-(Quinolin-6-yloxymethyl)-azetidine-1-carboxylic acid pyridin-3-ylamide, trifluoroacetate salt]	> 10000	> 10000
C#Cc1cccc(OCC2CN(C(=O)Nc3cccnc3)C2)c1 [Example 11, 3-(3-Ethynyl-phenoxymethyl)-azetidine-1-carboxylic acid pyridin-3-ylamide]	1600	370
O=C(Nc1cccnc1)N1CC(COc2ccc(Br)cc2)C1 [Example 3, 3-(4-Bromo-phenoxymethyl)-azetidine-1-carboxylic acid pyridin-3-ylamide]	> 10000	> 10000

Next, values leading:

IC50 [1] [nM]	IC50 [2] [nM]	SMILES
6	16	O=C(Nc1cnccc1Cl)N1CC[C@H](COc2cccc(Oc3ccc(Cl)cc3)c2)C1 [Example 55, (3S)-3-[3-(4-Chloro-phenoxy)-phenoxymethyl]-pyrrolidine-1-carboxylic acid (4-chloro-pyridin-3-yl)-amide]
24	30	O=C(Nc1cnc2ccccn12)N1CC(CCOc2cccc(Oc3ccc(Cl)cc3)c2)C1 [Example 42, 3-{2-[3-(4-Chloro-phenoxy)-phenoxy]-ethyl}-azetidine-1-carboxylic acid imidazo[1,2-a]pyridin-3-ylamide]
> 10000	3000	O=C(Nc1cnccc1Cl)N1CCC(CCOc2ccccc2)C1 (centres unmarked) [Example 57, 3-(2-Phenoxy-ethyl)-pyrrolidine-1-carboxylic acid (4-chloropyridin-3-yl)-amide]
630	600	O=C(Nc1cccnc1)N1CCC(CCOc2cccc(Oc3ccc(Cl)cc3)c2)C1 (centres unmarked) [Example 63, 3-{2-[3-(4-Chloro-phenoxy)-phenoxy]-ethyl}-pyrrolidine-1-carboxylic acid pyridin-3-ylamide]
43	700	O=C(Nc1cccnc1)N1CC(CCOc2ccc(Cl)c(C(F)(F)F)c2)C1 [Example 45, 3-[2-(4-Chloro-3-trifluoromethyl-phenoxy)-ethyl]-azetidine-1-carboxylic acid pyridin-3-ylamide]
739	275	O=C(Nc1cnccc1Cl)N1CC(CCOCc2ccc(Cl)cc2)C1 [Example 65, 3-[2-(4-Chloro-benzyloxy)-ethyl]-azetidine-1-carboxylic acid (4-chloro-pyridin-3-yl)-amide]
1230	849	O=C(Nc1cccnc1)N1CC(CCOCc2ccc(Cl)c(Cl)c2)C1 [Example 68, 3-[2-(3,4-Dichloro-benzyloxy)-ethyl]-azetidine-1-carboxylic acid pyridin-3-ylamide, trifluoroacetate salt]
1	4	O=C(Nc1noc2ccccc12)N1CC(CCOc2cccc(Oc3ccc(Cl)cc3)c2)C1 [Example 43, 3-{2-[3-(4-Chloro-phenoxy)-phenoxy]-ethyl}-azetidine-1-carboxylic acid benzo[d]isoxazol-3-ylamide]
97	9	CS(=O)(=O)c1ccc(Oc2cccc(OCC3CCN(C(=O)Nc4cnccc4Cl)C3)c2)cc1 (centres unmarked) [Example 50, N-(4-Chloropyridin-3-yl)-3-({3-[4-(methylsulfonyl)phenoxy]phenoxy}methyl)pyrrolidine-1-carboxamide]
> 10000	> 10000	O=C(Nc1cccnc1)N1CCC(CCOc2ccccc2)C1 (centres unmarked) [Example 54, 3-(2-Phenoxy-ethyl)-pyrrolidine-1-carboxylic acid pyridin-3-ylamide]
33	9	O=C(Nc1cnccc1Cl)N1CCC(COc2ccc(Cl)c(Cl)c2)C1 (centres unmarked) [Example 49, N-(4-Chloropyridin-3-yl)-3-[(3,4-dichlorophenoxy)methyl]pyrrolidine-1-carboxamide]
